Measured values published in publication PMC6315564, “Geospallins A–C: New Thiodiketopiperazines with Inhibitory Activity against Angiotensin-Converting Enzyme from a Deep-Sea-Derived Fungus Geosmithia pallida FS140” (Marine Drugs, 2018).

Biological target: angiotensin-converting enzyme (ACE) (Homo sapiens, UniProt P12821)
Assay: Angiotensin-converting enzyme (ACE) inhibitory assay (N-hippuryl-His-Leu substrate, HPLC detection of hippuric acid)
Format: biochemical
Conditions: 37 °C, 60 min, captopril positive control, read-out: IC50 against angiotensin-converting enzyme (ACE)
Description: ACE inhibitory activity was determined by a previously reported method. In brief, 20 μL thiodiketopiperazines dissolved in DMSO with different concentrations were added to 120 μL N-hippuryl–His–Leu substrates, then preheated in water for 3–5 min; next, 10 μL ACE enzymatic solution was added and mixtures were incubated at 37 °C for 60 min, and 150 μL 1 M HCl was added to stop the reaction. The mixture was loaded for HPLC with a flow rate of 0.5 mL/min by 60% methanol, and the absorbance at 228 nm was detected. To serve as a blank, 10 μL pH 8.3 boric acid replaced the thiodiketopiperazines. Hippuric acid solutions at 10, 20, 40, 60, 80, and 100 μg/mL were prepared using 10 μL pH 8.3 boric acid. One enzymatic unit was defined as the amount giving the production of 1 μM hippuric acid by the catalyzation of the substrate N-hippuryl–His–Leu at 37 °C in 1 min. Captopril was used as a positive control.

Chain of angiotensin-converting enzyme (ACE) (P12821 30-1306, species assumed): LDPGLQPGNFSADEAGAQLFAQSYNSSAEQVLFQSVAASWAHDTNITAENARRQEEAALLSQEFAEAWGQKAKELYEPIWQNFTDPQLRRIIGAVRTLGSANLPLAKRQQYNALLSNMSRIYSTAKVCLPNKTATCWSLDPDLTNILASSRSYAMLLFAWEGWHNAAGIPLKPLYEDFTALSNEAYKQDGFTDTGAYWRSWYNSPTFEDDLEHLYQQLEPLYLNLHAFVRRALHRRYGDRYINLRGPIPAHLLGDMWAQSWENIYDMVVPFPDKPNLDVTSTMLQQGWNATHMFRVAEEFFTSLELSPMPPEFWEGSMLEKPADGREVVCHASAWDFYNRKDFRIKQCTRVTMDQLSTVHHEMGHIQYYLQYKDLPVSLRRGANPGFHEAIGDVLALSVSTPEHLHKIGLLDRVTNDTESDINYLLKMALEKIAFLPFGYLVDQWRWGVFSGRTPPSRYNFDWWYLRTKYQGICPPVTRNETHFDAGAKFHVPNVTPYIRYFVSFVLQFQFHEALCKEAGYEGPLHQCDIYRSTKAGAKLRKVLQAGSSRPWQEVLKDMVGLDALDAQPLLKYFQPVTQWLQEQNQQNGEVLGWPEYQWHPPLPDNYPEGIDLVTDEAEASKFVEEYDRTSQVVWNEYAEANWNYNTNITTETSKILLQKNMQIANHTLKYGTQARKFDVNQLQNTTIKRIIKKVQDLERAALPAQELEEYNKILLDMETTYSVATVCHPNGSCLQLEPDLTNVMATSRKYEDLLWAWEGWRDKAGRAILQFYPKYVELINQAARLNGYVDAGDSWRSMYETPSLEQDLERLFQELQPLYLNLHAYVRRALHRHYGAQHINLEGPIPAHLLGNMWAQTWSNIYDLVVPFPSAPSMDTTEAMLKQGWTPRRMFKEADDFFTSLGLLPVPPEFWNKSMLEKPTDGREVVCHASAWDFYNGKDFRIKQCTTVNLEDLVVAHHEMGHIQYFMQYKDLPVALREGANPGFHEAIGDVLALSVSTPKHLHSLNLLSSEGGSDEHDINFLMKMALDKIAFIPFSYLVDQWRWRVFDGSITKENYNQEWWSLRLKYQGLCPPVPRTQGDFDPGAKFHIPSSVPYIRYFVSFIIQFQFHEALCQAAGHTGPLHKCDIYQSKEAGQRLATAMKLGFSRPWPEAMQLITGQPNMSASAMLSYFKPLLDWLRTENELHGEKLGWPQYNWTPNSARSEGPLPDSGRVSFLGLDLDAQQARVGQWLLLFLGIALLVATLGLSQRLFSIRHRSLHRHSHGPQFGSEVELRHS

Structure (SMILES)	IC50 [µM]
COC12CC3(O)C(SC)C=CC(OC(C)=O)C3N1C(=O)C(CO)(SC)N(C)C2=O (stereo not drawn) [Compound 1, geospallin A]	35 ± 5.2
CSC1C=CC(OC(C)=O)C2N3C(=O)C(CO)(SC)N(C)C(=O)C3(O)CC12O (stereo not drawn) [Compound 2, geospallin B]	31 ± 3.3
CSC1(CO)C(=O)N2C3C(OC(C)=O)C(=O)C=CC3(O)CC2(SC)C(=O)N1C (stereo not drawn) [Compound 3, geospallin C]	29 ± 3.3
